Measured values published in patent EP0010209A1, “N-Benzoyl-retinyl amines, process for their preparation, pharmaceutical compositions comprising them and the use of these compounds for the therapy and prophylaxis of precanceroses and carcinomas of the skin” (BASF Aktiengesellschaft, priority 1978, dated 1980).

Legend:
Brustkrebs bei Ratten = assay: Prevention of nitrosomethylurea-induced mammary cancer in rats; format: in vivo, Sprague-Dawley Ratten; details: nitrosomethylurea 50 mg/kg i.v., 2 mmol/kg diet from day 3, 12 weeks
tracheal cartilage = details: toxicity to tracheal cartilage in vitro; from Nature 263, 110-113 (1976); read-out: celluläre Toxizitätsschwelle (Konzentration); cited from earlier work
[1] = test system: durch Vitamin A-Hypovitaminose keratinisierten Hamstertrachealgewebe; details: hamster tracheal tissue keratinised by vitamin A deficiency; active only at this concentration; cited from earlier work

SMILES	Zahl der Tumoren (Brustkrebs bei Ratten; all tumours)	Zahl der Tumoren davon größer als 1,0 g (Brustkrebs bei Ratten; tumours > 1,0 g)	Zahl der Tumoren größer als 0,100 g (Brustkrebs bei Ratten; tumours > 0,100 g)	MCC (tracheal cartilage)	Konzentration, in der Aktivität vorliegt [1]
CC1=C(/C=C/C(C)=C/C=C/C(C)=C/CNC(=O)c2ccccc2)C(C)(C)CCC1 [Benzoyl-retinylamin, N-Benzoyl-all-E-Retinylamin]	10	2	4	–	–
CC(=O)NCC=C(C)C=CC=C(C)C=CC1=C(C)CCCC1(C)C [N-Acetyl-retinylamin]	–	–	–	> 10 µM	9.10^-9 molar
